Results reported in patent publication US20080311126A1, “Antisense Oligonucleotides Directed to Ribonucleotide Reducatase R2 and Uses Thereof in Combination Therapies for the Treatment of Cancer” (Genesense Technologies, Inc, priority 2004, published 2008).
Oligonucleotides are written 5' to 3', each unit as a sugar letter and its base; * is a phosphorothioate linkage, no mark a phosphodiester; rarer units and linkages stand in square brackets, end groups in braces. Plain capitals give the bases only. d = 2'-deoxy (DNA)

Legend:
Format in all cases: cell-based, human
[1] = test system: Hela S3 cells; experiment: Relative colony forming efficiency, lipofectin +/- oligonucleotide 4 hours; settings: Hela S3 cervix carcinoma cells; averages of 2-8 determinations
Procedure: Colony forming efficiency was determined using standard protocols. Briefly, the cells were cultured for 24 hours at 37° C. in growth medium with 10% fetal bovine serum. The cells were washed in 5 ml phosphate buffered saline, pH 7.2, once prior to lipofectin +/−oligonucleotide treatment.
The test oligonucleotides were added to cell cultures in the presence of 2.5 μg of DOTMA/DOPE (Lipofectin; Life Technologies, Inc.) for four hours. The oligonucleotide was tested at 0.2 μM unless otherwise indicated. Controls were the cultures treated with lipofectin but without the oligonucleotide. After 4 hours the medium containing the oligonucleotide was removed and washed with 5 ml of growth medium. The cells were then cultured in growth medium containing 10% fetal bovine serum for seven to ten days. Surviving cells were visualized by methylene blue staining, and colonies were scored. In some experiments cell aliquots were removed from the culture and viability was determined using the trypan blue exclusion test. Results were analyzed as percent of surviving cells compared to control cells.
AS-II-336-20 was tested for the ability to inhibit the proliferation of human tumour cells (Hela). Hela S3 cells (American Type Culture Collection, Rockville, Md., ATCC), and a Hela cell line (Hela 1 mM) previously selected for resistance to the antitumour agent, hydroxyurea, were tested (see results in Table 11). Two experiments were undertaken with Hela S3 cells. […] The same experiment was repeated with the Hela 1 mM cell line and with varying concentrations of the antisense construct AS-II-336-20 (see results in Table 11) with similar results, […] was an effective concentration for inhibiting colony formation.
To test the antisense effects of many of these sequences as phosphorthioate deoxyribonucleotides, they were examined in relative colony forming experiments conducted as described in Example 16 with a series of human tumour cell lines. The results (shown as % inhibition of colony forming ability) obtained with cancer cells derived from the bladder, breast, lung, colon, pancreas, prostate, liver and cervix, are shown in Table 13. The specific cell lines employed are as follows:
T24=bladder cell carcinoma HCT116=colon cell carcinoma A549=lung cell carcinoma MDA-MB-231=breast cell adenocarcinoma […]=pancreatic cell carcinoma PC-3=prostrate cell adenocarcinoma HepG2=hepatocellular carcinoma HeLaS3=cells isolated from a carcinoma of the cervix T-47D=breast ductal carcinoma H596=lung adenosquamous carcinoma cells Colo320=colon cell adenocarcinoma

[2] = test system: A549 lung cell carcinoma; experiment: Relative colony forming efficiency (Example 17, Table 13); settings: averages of 2-8 determinations
Procedure: (§1) Colony forming efficiency was determined using standard protocols. […] The test oligonucleotides were added to cell cultures in the presence of 2.5 μg of DOTMA/DOPE (Lipofectin; Life Technologies, Inc.) for four hours. The oligonucleotide was tested at 0.2 μM unless otherwise indicated. Controls were the cultures treated with lipofectin but without the oligonucleotide. […] Surviving cells were visualized by methylene blue staining, and colonies were scored. In some experiments cell aliquots were removed from the culture and viability was determined using the trypan blue exclusion test. Results were analyzed as percent of surviving cells compared to control cells. To test the antisense effects of many of these sequences as phosphorthioate deoxyribonucleotides, they were examined in relative colony forming experiments conducted as described in Example 16 with a series of human tumour cell lines. The results (shown as % inhibition of colony forming ability) obtained with cancer cells derived from the bladder, breast, lung, colon, pancreas, prostate, liver and cervix, are shown in Table 13. The specific cell lines employed are as follows: […]

[3] = test system: HCT116 colon cell carcinoma; experiment: as above; settings: averages of 2-8 determinations
Procedure: as §1

[4] = test system: HepG2 hepatocellular carcinoma; experiment: as above; settings: averages of 2-8 determinations
Procedure: as §1

[5] = test system: MDA PaCa-2 pancreatic cell carcinoma; experiment: as above; settings: MIA PaCa-2 pancreatic cell carcinoma; averages of 2-8 determinations
Procedure: as §1

[6] = test system: PC-3 prostrate cell adenocarcinoma; experiment: as above; settings: averages of 2-8 determinations
Procedure: as §1

[7] = test system: T24 bladder cell carcinoma; experiment: as above; settings: averages of 2-8 determinations
Procedure: as §1

[8] = test system: MDA-MB-231 breast cell adenocarcinoma; experiment: as above; settings: averages of 2-8 determinations
Procedure: as §1

Substance | Reduced relative colony forming efficiency, Hela S3 (% inhibition of colony forming ability) [1] [%] | Reduced relative colony forming efficiency, A549 (% inhibition of colony forming ability) [2] [%] | Reduced relative colony forming efficiency, HCT116 (% inhibition of colony forming ability) [3] [%] | Reduced relative colony forming efficiency, HepG2 (% inhibition of colony forming ability) [4] [%] | Reduced relative colony forming efficiency, MIA PaCa-2 (% inhibition of colony forming ability) [5] [%] | Reduced relative colony forming efficiency, PC-3 (% inhibition of colony forming ability) [6] [%] | Reduced relative colony forming efficiency, T24 (% inhibition of colony forming ability) [7] [%] | Reduced relative colony forming efficiency, MDA-MB-231 (% inhibition of colony forming ability) [8] [%]
AS-II-114420 (antisense dG*dT*dA*dT*dT*dG*dC*dT*dT*dC*dA*dT*dT*dA*dG*dA*dG*dT*dG*dC) | 50.57 | 61.81 | 54.25 | 92.17 | 46.39 | 30.21 | 62.9 | 
AS-II-218220 (antisense dC*dG*dT*dT*dG*dA*dG*dG*dA*dA*dA*dA*dT*dA*dC*dA*dG*dT*dG*dA) |  | 90.97 | 77.66 | 95.48 | 56.43 | 85.91 | 67.76 | 84.95
ATAAAGTCAAATGGGTTCTC (antisense dA*dT*dA*dA*dA*dG*dT*dC*dA*dA*dA*dT*dG*dG*dG*dT*dT*dC*dT*dC) [AS-II-1224-20] | 14.8 | 55.06 | 41.78 | 76.05 | 17.22 | 80.66 | 38.31 | 
ATGGAAAAAAAAAATCAGCC (antisense dA*dT*dG*dG*dA*dA*dA*dA*dA*dA*dA*dA*dA*dA*dT*dC*dA*dG*dC*dC) [AS-II-1390-20] |  | 88.31 | 62.18 | 90.21 | 82.77 | 76.76 | 61.13 | 66.89
GAACATCAGGCAAGCAAAAT (antisense dG*dA*dA*dC*dA*dT*dC*dA*dG*dG*dC*dA*dA*dG*dC*dA*dA*dA*dA*dT) [AS-II-1006-20] | 41.79 | 61.62 | 45.56 | 89.31 | 47.93 | 92.58 | 61.49 | 
GAGAAATAAAATGAAACGGC (antisense dG*dA*dG*dA*dA*dA*dT*dA*dA*dA*dA*dT*dG*dA*dA*dA*dC*dG*dG*dC) [AS-II-2164-20] |  | 91.15 | 50.08 | 93.07 | 89.36 | 83.36 | 61.84 | 69.03
GCAAAGAAAGCCAGAACATG (antisense dG*dC*dA*dA*dA*dG*dA*dA*dA*dG*dC*dC*dA*dG*dA*dA*dC*dA*dT*dG) [AS-II-579-20] |  | 95.49 | 69.08 | 94.28 | 97.55 | 88.16 | 76.68 | 66.89
GCAAAGGCTACAACACGTTC (antisense dG*dC*dA*dA*dA*dG*dG*dC*dT*dA*dC*dA*dA*dC*dA*dC*dG*dT*dT*dC) [AS-II-861-20] |  | 95.78 | 74.2 | 96.08 | 97.3 | 87.33 | 73.5 | 89.98
GCACATCTTCAGTTCATTTA (antisense dG*dC*dA*dC*dA*dT*dC*dT*dT*dC*dA*dG*dT*dT*dC*dA*dT*dT*dT*dA) [AS-II-1362-20] |  | 83.9 | 78.47 | 80.41 | 44.14 | 77.38 |  | 70.22
GCCACAGGATAAAAACACAA (antisense dG*dC*dC*dA*dC*dA*dG*dG*dA*dT*dA*dA*dA*dA*dA*dC*dA*dC*dA*dA) [AS-II-2009-20] |  | 93.32 | 69.92 | 96.99 | 93.74 | 83.36 | 61.84 | 96.25
TCAGGCAAGCAAAATCACAG (antisense dT*dC*dA*dG*dG*dC*dA*dA*dG*dC*dA*dA*dA*dA*dT*dC*dA*dC*dA*dG) [AS-II-1001-20] |  | 71.36 | 55.58 | 90.36 | 64.21 | 85.94 | 86.11 | 82.17
TTAGAAGTCAGCATCCAAGG (antisense dT*dT*dA*dG*dA*dA*dG*dT*dC*dA*dG*dC*dA*dT*dC*dC*dA*dA*dG*dG) [AS-II-1345-20] |  | 73.1 | 65.7 | 75.42 | 77.39 | 89.58 | 51.26 | 94.11
